Square brackets hold non-standard residues; d marks the D form. Ends that are not written are not given here. pS = N[C@@H](COP(=O)(O)O)C(=O)O
Assays:
HLA-DR1 = assay: Binding to human MHC class II molecule HLA-DR1; details: peptide 0.01-100 μM; FIG. 19
Method: (§1) FIG. 19: binding of the 131-151 and P140 peptides to the human major histocompatibility complex class II molecules; the results are expressed as a percentage of binding of the peptides to the HLA-DR1, -DR4 and DR11 molecules; the percentage inhibition is calculated as a function of the O.D. values measured in the presence of various concentrations of 131-151 and P140 peptides (0.01-100 μM).

HLA-DR4 = assay: Binding to human MHC class II molecule HLA-DR4; details: peptide 0.01-100 μM; FIG. 19
Method: as §1

[1] = tested on: pre-autoimmune MRL/lpr mice; assay: Administration to pre-autoimmune MRL/lpr mice, monitoring of disease development; assay type: in vivo
Method: The two peptides (phosphorylated in position 140 and non-phosphorylated) were used for a study of restoration of self-tolerance. These two peptides were injected by intravenous and intra-nasal route into preautoimmune mice, and the development of the disease in these mice was monitored.

[2] = tested on: CD4+ T cells of MRL/lpr lupic mice; assay: Recognition by CD4+ T cells of MRL/lpr lupic mice (ex vivo proliferation, IL-2 secretion); assay type: cell-based
Method: (§2) FIG. 1: recognition of the 131-151 peptide of the 70K protein by the CD4+ T cells of MRL/lpr (right column) or NZB/W lupic mice (left column); the peptide concentrations are indicated on the x-axis, the proliferation of the CD4+ T cells of MRL/lpr and BW mice, represented on the y-axis of the graphs of the first line, is measured ex vivo in the presence of the various concentrations of 131-151 peptide of the 70K protein; the proliferation is expressed in stimulation indices corresponding to the radioactivity incorporated in the DNA of the cells (in counts per minute) in the presence of peptide on the incorporation of radioactivity in the absence of peptide; the secretion of IL-2, represented on the y-axis of the graphs of the second line, is measured in the supernatants after 24 hrs of culture by a bio-assay; the IL-2 concentration is determined with a standard range of recombinant IL-2 and is expressed in mU/ml.
(§3) FIG. 13: recognition of the P140 peptide by the CD4^+ T lymphocytes (A) of MRL/lpr lupic mice; the graph on the left represents the proliferation of CD4^+ T cells expressed in stimulation indices as defined above in the presence of the 131-151 peptide, of the phosphorylated P137 and P140 peptides and of two scrambled peptides, phosphorylated or not phosphorylated (Sc and ScP); the positivity limit corresponds to 2.0; the graph on the right represents the secretion of IL-2 (mU/ml) in the presence of the 131-151 peptide, the P137 and P140 peptides and the Sc and ScP peptides; and by the antibodies (B) of MRL/lpr lupic mice; the results are expressed in titre of antibodies corresponding to the dilution allowing an O.D. value at 450 nm equal to 0.2 to be obtained in an ELISA test.

[3] = tested on: antibodies of MRL/lpr lupic mice; details: among 20 overlapping peptides of the 70K protein; cited from earlier work
HLA-DR11 = assay: Binding to human MHC class II molecule HLA-DR11; details: peptide 0.01-100 μM; FIG. 19
Method: as §1

[4] = tested on: major histocompatibility complex class II molecules (I-E^k, I-A^k, I-E^d, I-A^d); assay: Binding to murine MHC class II molecules (transfected fibroblasts, T hybridoma IL-2 competition); assay type: cell-based; details: murine (and human, as worded in b8); FIG. 2
Method: FIG. 2: binding of the 131-151 peptide to the molecules of the major histocompatibility complex of class II murines (I-E^k, I-A^k, I-E^d, I-A^d); fibroblasts transfected by the molecules I-E^k, or I-A^k, or I-E^d, or I-A^d are pre-incubated with different concentrations of the 131-151 peptide; after 30 minutes at 37° C., the 12-26CI or 16-33 analogue peptides of the β2-adrenergic receptor, as well as the respective T hybridomas which recognize these peptides in the adapted context (8I for I-E^k, E7E9 for I-A^k, 26.1 for I-E^d, and 26.2 for I-A^d) are added; the supernatants are recovered after 24 hrs of culture and the secretion of IL-2 is evaluated as previously; the results are expressed as a % inhibition representing the ability of the 131-151 peptide to inhibit the binding of the 12-26 CI and 16-33[…]2 analogue peptides to the class II molecules.

[5] = tested on: CD4+ T cells of NZB/W lupic mice; assay: Recognition by CD4+ T cells of NZB/W lupic mice; assay type: cell-based; details: FIG. 1
Method: as §2

[6] = tested on: antibodies of MRL/lpr lupic mice; assay: Recognition by antibodies of MRL/lpr lupic mice (ELISA titre); assay type: binding; details: compared with the non-phosphorylated parent peptide; FIG. 13
Text: as §3

[7] = in vitro, CD4+ T cells purified from the ganglia of MRL/lpr mice
[8] = intravenous route, pre-autoimmune MRL/lpr mice, FIG. 14

Substance	binding to HLA-DR1 (HLA-DR1)	binding to HLA-DR4 (HLA-DR4)	proteinuria ([1]; group injected with the peptide, versus saline control)	effect of administration on anti-DNA antibodies, glomerulonephritis and survival ([1]; pre-autoimmune mice, listed as parent peptide)	mice survived ([1]; to 35 weeks, p=0.2 compared to the control mice) [%]	proliferation of CD4+ T cells [2, 7]	secretion of IL-2 by CD4+ T cells [2, 7]	recognition by the antibodies of MRL/lpr lupic mice [3]	binding to HLA-DR11 (HLA-DR11)	binding to major histocompatibility complex class II molecules [4]	epitope of the 70K protein in the NZB/W mouse [5]	appearance of glomerulonephritis ([1]; intranasal route, pre-autoimmune MRL/lpr mice, FIG. 14)	appearance of glomerulonephritis [1, 8]	production of antibodies directed against the DNA [1, 8]	survival of animals [1, 8]	recognition by the CD4+ T cells of lupic mice ([2]; compared with the non-phosphorylated parent peptide, FIG. 13)	recognition by the antibodies of lupic mice [6]
RIHMVYSKRSGKPRGYAFIEY (listed as Homo sapiens) [131-151]	capable of binding	capable of binding	hardly reduced	does not on the other hand induce any statistically significant effect	25	capable of stimulating	capable of stimulating	recognized very early	capable of binding	capable of binding	major epitope	–	–	–	–	–	–
P140: sequence SEQ ID NO: 1 (RIHMVYSKRSGKPRGYAFIEY) in which the serine in position 10 is phosphorylated (RIHMVYSKR[pS]GKPRGYAFIEY; listed as Homo sapiens)	capable of binding	capable of binding	–	–	–	–	–	–	capable of binding	–	–	not by intranasal route	delays the appearance of glomerulonephritis	reduces the production of large numbers of antibodies directed against the DNA	prolongs the survival of animals	to the same extent as or even to a greater extent than the non-phosphorylated peptide	to the same extent as or even to a greater extent than the non-phosphorylated peptide
